In data set [1] the test system is herpes simplex virus type 2 (HSV-2). The experiment in a line: In vitro HSV-2 bioassay: virucidal plaque assay (HEP-2 cells). The class given is cell-based, HSV-2 strain 333. Conditions: for plaque count / titer: Table 3. How it is done:
Evidence of the efficacy of the virucides of the invention in vitro has been obtained from bioassay using HSV-2, using a standard assay procedure. Serial dilutions of the compounds were tested for their ability to prevent plaque formation by a stock virus suspension. Reduction of plaque titer by test compounds as compared to mock treated controls was indicative of virucidal activity. […] These represent the upper limit for the drug concentration, since dilutions were not carried beyond 1:6400 and in some cases 1:12800.
Cell Culture. Cell cultures used for the propagation and titration of HSV-2 were the human diploid lung embryonic line MRC-5 and the human malignant epitheloid cell line HEP-2 respectively. Stock monolayer cultures of both cell lines were propagated in Dulbecco's Modified Eagle's medium (DME) supplemented with 10% (V/V) calf serum. Spinner cultures for mass production of HEP-2 cells were grown in Joklik's medium supplemented with 10% (V/V) calf serum and 1% (W/V) pluronic acid. Monolayer cultures of HEP-2 cells for plaque or virucidal assay were seeded into 60 mm dishes in DME supplemented with 10% calf serum and antibiotics. Stock cultures were maintained in antibiotic free medium.
Herpes simplex virus, type 2 (HSV-2) strain 333 was obtained from Dr. John Hughes of the Dept. of Medical Microbiology, College of Medicine, The Ohio State University. Stocks of HSV-2 were prepared in the human diploid embryonic lung cell line, MRC-5. Confluent MRC-5 monolayer cultures in T-75 plastic flasks were washed one time with Hank's and Balanced Salt solution (HBSS) and infected with 0.5 ml of HSV-2, strain 333 stock. Virus was adsorbed for 1 hour at 37° C. Then the culture was refed with 15 ml of DME supplemented with 1% (V/V) calf serum. Virus was harvested 48 hours later when cytopathology was complete. Cultures were frozen and thawed rapidly three times to release cell associated virus, clarified by centrifugation at 10,000×g for 15 minutes at 4° C., aliquoted into 5 ml lots and frozen at -70° C. One lot was taken for virus titration.
HSV-2 was titrated by plaque assay in HEP-2 cells under a semi-solid methyl cellulose overlay. Tenfold serial dilutions of virus were prepared in HBSS and 0.3 ml aliquots of each dilution inoculated onto triplicate HEP-2 cell monolayers in 60 mm plastic petri dishes. Adsorption of virus was for 1 hour at 37° C. Plates were then overlayed with 5 ml of a 1:1 mixture of 2×DME supplemented with 2% (V/V) calf serum and 3% (W/V) methyl cellulose to give a final 1×DME supplemented with 1% calf serum and 1.5% methylcellulose. Infected plates were incubated at 37° C. in a humidified 10% CO2 atmosphere for 48 hours. Virus plaques were visualized by staining with crystal violet and counted under a dissecting microscope. Virus titers were calculated from the plaque numbers by averaging the plaque count and multiplying by 3.3 (0.3 ml plates).
The following procedure was employed to assay virucidal activity in various test samples. Compounds were received as a solution in DMSO and were serially diluted in HBSS as described for each experiment. For the test, 1 ml of each dilution was mixed with 1 ml of a stock virus suspension diluted to approximately 9×10^3 plaque forming units (P.F.U.)/ml. This test mixture was incubated at 25° C. for 30 minutes, then inoculated onto a cell culture (HEP-2) for plaque assay as described previously. Mock treated (virus plus HBSS) controls were included with each test. Any reduction of plaque titer by test compounds as compared to the mock treated control was indicative of virucidal activity.
Samples from RP-HPLC fractionation of the CLOH, produced according to Example 2, as well as purified samples of palmitic, myristic and oleic acids and Vitamin D2, were tested for HSV-2 bioactivity. […] Pure oleic acid was not active in this assay, nor were palmitic and myristic acids and Vitamin D2. […]

Data set [2] can be described thus: Guinea pig toxicity controls (sham-infected, topical treatment). Conditions: for Toxicity Controls Max. Irrit. Score: 0 to 4 scale. The class given is in vivo, guinea pigs. The method, then: Drugs. The substances tested consisted of four bottles labelled "A", "B", "C", and "D" with no identifying key. The samples were: A, 0.1 mg/ml DHA (0.003 mmol/ml); B, 5% w/w ACV (0.22 mmol/ml); C, 1 mg/ml DHA (0.03 mmol/ml); and D, 10 mg/ml DHA ([…]). […] All were treated as light-sensitive compounds.
Experimental Protocol. The guinea pigs were infected by applying a virus-soaked swab intravaginally, with agitation, for 20 seconds. Toxicity control animals were similar pretreated using swabs soaked in sterile Puck's balanced salt solution. Treatment began 20 hr later, with the compound or placebo applied topically intravaginally, perivaginally, and perianally using cotton swabs soaked in the respective substance. Treatment continued three times daily (8 a.m., noon, 4 p.m.) for 7 days. Ten infected animals were used for each coded substance, with twenty used for virus controls. Five sham-infected animals were concomitantly treated with each coded substance to serve as toxicity controls. Two guinea pigs were held separately to serve as normal untreated controls.
Each animal was observed daily for survival for a total of 28 days. On days 5 through 8 post-virus inoculation, the genital area was carefully examined and signs of irritation in the toxicity controls and lesion severity in injected animals was scored on a 0 to 4 scale using the same scale as in the mouse bioassay. The results were scored as average daily lesion (ADL) scores for each group, and as mean vaginal lesion (MVL) scores, calculated as the mean of the ADL scores for days 5-8. The maximum mean score for the toxicity control animals was also determined.

Each structure is given as a SMILES string. ≈ marks a conversion by molar mass, not a printed value.

Take `CCC=CCC=CCC=CCC=CCC=CCC=CCCC(=O)O` [DHA, 4,7,10,13,16,19 Docosahexaenoic Acid]: in data set [1] (Human alphaherpesvirus 2, 0.5 h, Table 4 run, 30 min at 25° C., upper limit, dilutions to 1:12800, read-out: MIC (lowest concentration producing a 3-log reduction in virus titer)), the MIC was found to be 0.47 µg/mL (≈ 1.43 µM). Besides, the plaque count in data set [1] (dilution 1:10) is 0; in data set [1] (dilution 1:100) it was 0; in data set [1] (dilution 1:400, TNTC = too numerous to count), 0; in data set [1] (dilution 1:800, TNTC = too numerous to count) it was 0; in data set [1] (dilution 1:1600, TNTC = too numerous to count) it was 0; in data set [1] (dilution 1:3200, TNTC = too numerous to count), 0. Further, the plaque count in data set [1] (dilution 1:6400, TNTC = too numerous to count) was found to be 0; in data set [1] (dilution 1:12800, TNTC = too numerous to count) it was 0. The titer in data set [1] (dilution 1:10, control titer 4.5 × 10^3) is 0; in data set [1] (dilution 1:100), 0; in data set [1] (dilution 1:400), 0; in data set [1] (dilution 1:800), 0; in data set [1] (dilution 1:1600), 0; in data set [1] (dilution 1:3200), 0. The titer in data set [1] (dilution 1:6400) and in data set [1] (dilution 1:12800) was 0 each time. In data set [1] (in vitro bioassay), the “virucidal activity against HSV-2 in words” value is “potent and fast-acting virucides”. Besides, the “Toxicity Controls Surv/Total” value in data set [2] (A: 0.1 mg/ml DHA in PEG-1000), in data set [2] (C: 1 mg/ml DHA in PEG-1000) and in data set [2] (D: 10 mg/ml DHA in PEG-1000) was 5/5 each time. For the same molecule, the “Toxicity Controls Max. Irrit. Score” value in data set [2] (A: 0.1 mg/ml DHA in PEG-1000), in data set [2] (C: 1 mg/ml DHA in PEG-1000) and in data set [2] (D: 10 mg/ml DHA in PEG-1000) was 0.0 throughout.

These data come from patent US4513008A, “Virucidal compositions and therapy” (The Vinoxen Company, Inc., priority 1982, dated 1985).
